# From ChEMBL document CHEMBL1201862, “PubChem BioAssay data set” (2004)
# Calls of active or inactive are those of the source.
# How the values were obtained:
# [1] = antiviral protection against BTV-induced cell death – arbovirus, BSR cells, confirmation (AID 1250); format: functional;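 note: protection from viral cytopathic effect measured as cell viability by ATP luminescence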
# [2] = molecular target: 72 kDa type IV collagenase (Homo sapiens, UniProt P08253); test: Dose Response validation of uHTS RPN11 inhibitor hits using a MMP-2 Fluorescence assay.; format: functional
# Chain of 72 kDa type IV collagenase (P08253 whole entry): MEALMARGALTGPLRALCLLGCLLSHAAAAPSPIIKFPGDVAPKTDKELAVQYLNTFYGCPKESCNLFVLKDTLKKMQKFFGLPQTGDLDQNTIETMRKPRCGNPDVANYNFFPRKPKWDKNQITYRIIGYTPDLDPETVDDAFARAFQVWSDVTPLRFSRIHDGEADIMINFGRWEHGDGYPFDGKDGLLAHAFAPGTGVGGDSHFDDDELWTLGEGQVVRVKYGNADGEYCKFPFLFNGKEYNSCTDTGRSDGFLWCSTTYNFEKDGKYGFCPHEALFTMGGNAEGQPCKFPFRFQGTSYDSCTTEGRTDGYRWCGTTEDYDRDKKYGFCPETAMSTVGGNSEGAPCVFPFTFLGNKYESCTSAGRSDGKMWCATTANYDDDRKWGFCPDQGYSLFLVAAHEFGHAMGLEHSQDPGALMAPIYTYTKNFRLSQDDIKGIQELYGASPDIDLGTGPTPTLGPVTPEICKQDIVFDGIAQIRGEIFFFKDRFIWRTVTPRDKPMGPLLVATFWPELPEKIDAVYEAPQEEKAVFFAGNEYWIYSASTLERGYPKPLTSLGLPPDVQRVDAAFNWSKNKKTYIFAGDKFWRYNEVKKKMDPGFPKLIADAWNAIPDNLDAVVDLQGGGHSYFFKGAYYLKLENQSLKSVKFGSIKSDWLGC
# [3] = molecular target: T1, Serine/threonine-protein phosphatase (Candida dubliniensis (strain CD36 / CBS 7987 / NCPF 3949 / NRRLY-17841) (Yeast), UniProt B9W6M3); test: blockers of CaCl2-induced CDRE-lacZ signaling – S. cerevisiae, luminescence, secondary, dose response (AID 2388); format: functional, cell-based;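 note: yeast reporter cells carrying a calcineurin-responsive lacZ construct stimulated with calcium chloride; luminescent beta-galactosidase reporter signal in whole cells rather than isolated phosphatase activity; potency for inhibition where a drop in reporter signal means calcineurin blockade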
# T1 sequence (B9W6M3 whole entry): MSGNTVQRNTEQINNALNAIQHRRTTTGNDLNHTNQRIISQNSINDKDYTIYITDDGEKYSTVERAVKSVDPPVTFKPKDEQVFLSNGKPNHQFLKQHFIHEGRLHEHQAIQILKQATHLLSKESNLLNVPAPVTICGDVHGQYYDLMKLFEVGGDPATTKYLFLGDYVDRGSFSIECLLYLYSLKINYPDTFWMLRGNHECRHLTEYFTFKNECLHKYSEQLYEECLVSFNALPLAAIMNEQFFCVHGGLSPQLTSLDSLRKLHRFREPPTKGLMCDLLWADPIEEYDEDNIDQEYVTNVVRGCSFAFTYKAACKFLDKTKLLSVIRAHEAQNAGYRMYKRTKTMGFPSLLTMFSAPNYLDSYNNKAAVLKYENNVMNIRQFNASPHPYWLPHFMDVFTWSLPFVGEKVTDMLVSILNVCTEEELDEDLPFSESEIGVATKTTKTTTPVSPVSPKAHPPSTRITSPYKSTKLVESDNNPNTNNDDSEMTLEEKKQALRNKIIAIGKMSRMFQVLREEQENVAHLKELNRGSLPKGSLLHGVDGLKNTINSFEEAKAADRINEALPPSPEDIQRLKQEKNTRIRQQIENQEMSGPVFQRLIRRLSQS
# [4] = fluconazole-exposed Candida albicans growth modulators – fluorescence, retest, confirmation (AID 2467); format: functional, cell-based
# [5] = viability of PTEN-deleted HCT116 cells – cell-based, HCT116 PTEN knockout, dose response (AID 1047); format: functional;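 note: HCT116 colon tumor cells with PTEN knocked out; cells exposed to compound for 60 hours before readout; potency for loss of cell viability measured by luminescence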
# [6] = molecular target: T2, RNA-binding protein pos-1 (Caenorhabditis elegans, UniProt G5EF15); test: disruptors of C. elegans POS-1 RNA interaction – biochemical, fluorescence polarization, dose response (AID 1964);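 note: purified POS-1 fused to maltose binding protein made in E. coli; potency of compounds blocking POS-1 binding to fluorescent RNA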
# T2 sequence (G5EF15 whole entry): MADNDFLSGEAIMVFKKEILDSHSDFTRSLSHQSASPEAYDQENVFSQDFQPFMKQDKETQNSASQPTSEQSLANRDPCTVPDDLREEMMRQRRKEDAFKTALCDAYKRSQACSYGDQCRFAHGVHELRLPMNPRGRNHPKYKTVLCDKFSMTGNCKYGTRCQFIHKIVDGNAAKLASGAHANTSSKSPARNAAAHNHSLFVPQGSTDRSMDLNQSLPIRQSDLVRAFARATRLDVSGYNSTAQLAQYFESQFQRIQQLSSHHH
# [7] = viability of HCT116 lacking mutant beta-catenin – cell-based, human colon tumor, dose response (AID 1045); format: functional;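 note: HCT116 colon tumor cells with beta catenin knocked out; cells exposed to compound for 60 hours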
# [8] = molecular target: ATP-dependent molecular chaperone HSP82 (Candida albicans (strain WO-1) (Yeast), UniProt C4YTQ8); test: steroid-induced GRE reporter decrease in yeast – S. cerevisiae, luminescence, Hsp90 inhibitor project, dose response (AID 2400); format: functional, cell-based;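 note: beta-galactosidase luminescence from glucocorticoid response element reporter as proxy for Hsp90 function; inhibitor potency where signal loss means Hsp90 inhibition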
# Chain of ATP-dependent molecular chaperone HSP82 (C4YTQ8 whole entry): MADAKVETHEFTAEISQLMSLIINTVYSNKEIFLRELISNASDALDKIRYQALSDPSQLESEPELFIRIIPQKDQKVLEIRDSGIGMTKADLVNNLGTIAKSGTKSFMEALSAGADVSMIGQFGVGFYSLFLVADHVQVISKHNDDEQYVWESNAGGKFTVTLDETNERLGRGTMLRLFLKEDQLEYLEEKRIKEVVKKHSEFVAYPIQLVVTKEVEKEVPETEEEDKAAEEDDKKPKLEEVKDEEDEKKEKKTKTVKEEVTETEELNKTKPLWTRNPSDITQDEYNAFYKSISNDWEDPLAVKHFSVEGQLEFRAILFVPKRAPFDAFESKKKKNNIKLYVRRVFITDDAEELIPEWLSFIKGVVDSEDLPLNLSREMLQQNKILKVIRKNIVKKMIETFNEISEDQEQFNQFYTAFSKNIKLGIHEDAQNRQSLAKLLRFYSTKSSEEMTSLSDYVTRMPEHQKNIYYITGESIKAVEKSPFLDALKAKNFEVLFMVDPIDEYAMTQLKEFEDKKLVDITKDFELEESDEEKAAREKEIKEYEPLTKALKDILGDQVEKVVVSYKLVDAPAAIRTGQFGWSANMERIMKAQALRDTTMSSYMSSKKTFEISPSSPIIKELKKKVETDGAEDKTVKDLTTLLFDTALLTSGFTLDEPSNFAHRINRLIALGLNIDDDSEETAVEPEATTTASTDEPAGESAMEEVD
# [9] = molecular target: 26S proteasome non-ATPase regulatory subunit 14 (Homo sapiens, UniProt O00487); test: inhibition of proteasome subunit RPN11 – biochemical, fluorescence polarization, uHTS hits, confirmation (AID 602368); format: functional
# Chain of 26S proteasome non-ATPase regulatory subunit 14 (O00487 whole entry): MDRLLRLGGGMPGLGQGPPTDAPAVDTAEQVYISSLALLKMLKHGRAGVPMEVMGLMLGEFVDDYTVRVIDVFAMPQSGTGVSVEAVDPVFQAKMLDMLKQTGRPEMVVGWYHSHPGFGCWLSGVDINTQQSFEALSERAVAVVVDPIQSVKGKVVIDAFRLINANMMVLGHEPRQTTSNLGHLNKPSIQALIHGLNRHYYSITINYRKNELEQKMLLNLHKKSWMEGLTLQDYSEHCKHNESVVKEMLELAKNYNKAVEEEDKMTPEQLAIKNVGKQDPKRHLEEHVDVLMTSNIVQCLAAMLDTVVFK
# [10] = molecular target: T3, Zinc finger protein mex-5 (Caenorhabditis elegans, UniProt Q9XUB2); test: potency of MEX-5 RNA-binding blockers – biochemical, C. elegans, fluorescence polarization, dose response (AID 1960)
# T3 sequence (Q9XUB2 whole entry): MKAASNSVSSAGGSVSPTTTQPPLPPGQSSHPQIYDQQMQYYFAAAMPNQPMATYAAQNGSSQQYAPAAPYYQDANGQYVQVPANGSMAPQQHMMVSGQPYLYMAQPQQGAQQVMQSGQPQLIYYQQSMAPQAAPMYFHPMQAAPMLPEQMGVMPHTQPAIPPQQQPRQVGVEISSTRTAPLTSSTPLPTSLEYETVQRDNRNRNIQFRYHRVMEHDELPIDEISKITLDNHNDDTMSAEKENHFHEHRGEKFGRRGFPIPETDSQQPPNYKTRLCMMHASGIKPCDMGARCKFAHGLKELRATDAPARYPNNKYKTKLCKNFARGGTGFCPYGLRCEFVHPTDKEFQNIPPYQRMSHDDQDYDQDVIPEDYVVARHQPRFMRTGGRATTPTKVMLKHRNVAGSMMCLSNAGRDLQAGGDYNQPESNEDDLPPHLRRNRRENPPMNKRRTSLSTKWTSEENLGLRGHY
# [11] = NIH-3T3 fibroblast cytotoxicity, dose response, cytotoxicity control, cell-based, fluorescence, Alamar Blue, secondary assay (AID 2327); format: functional;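 note: NIH-3T3 mouse fibroblasts cultured with fluconazole at 8 µg/mL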
# [12] = molecular target: Protein-tyrosine kinase 2-beta (Homo sapiens, UniProt Q14289);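 note: potency of inhibitors of PYK2 kinase phosphorylation of poly-GT substrate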
# Chain of Protein-tyrosine kinase 2-beta (Q14289 whole entry): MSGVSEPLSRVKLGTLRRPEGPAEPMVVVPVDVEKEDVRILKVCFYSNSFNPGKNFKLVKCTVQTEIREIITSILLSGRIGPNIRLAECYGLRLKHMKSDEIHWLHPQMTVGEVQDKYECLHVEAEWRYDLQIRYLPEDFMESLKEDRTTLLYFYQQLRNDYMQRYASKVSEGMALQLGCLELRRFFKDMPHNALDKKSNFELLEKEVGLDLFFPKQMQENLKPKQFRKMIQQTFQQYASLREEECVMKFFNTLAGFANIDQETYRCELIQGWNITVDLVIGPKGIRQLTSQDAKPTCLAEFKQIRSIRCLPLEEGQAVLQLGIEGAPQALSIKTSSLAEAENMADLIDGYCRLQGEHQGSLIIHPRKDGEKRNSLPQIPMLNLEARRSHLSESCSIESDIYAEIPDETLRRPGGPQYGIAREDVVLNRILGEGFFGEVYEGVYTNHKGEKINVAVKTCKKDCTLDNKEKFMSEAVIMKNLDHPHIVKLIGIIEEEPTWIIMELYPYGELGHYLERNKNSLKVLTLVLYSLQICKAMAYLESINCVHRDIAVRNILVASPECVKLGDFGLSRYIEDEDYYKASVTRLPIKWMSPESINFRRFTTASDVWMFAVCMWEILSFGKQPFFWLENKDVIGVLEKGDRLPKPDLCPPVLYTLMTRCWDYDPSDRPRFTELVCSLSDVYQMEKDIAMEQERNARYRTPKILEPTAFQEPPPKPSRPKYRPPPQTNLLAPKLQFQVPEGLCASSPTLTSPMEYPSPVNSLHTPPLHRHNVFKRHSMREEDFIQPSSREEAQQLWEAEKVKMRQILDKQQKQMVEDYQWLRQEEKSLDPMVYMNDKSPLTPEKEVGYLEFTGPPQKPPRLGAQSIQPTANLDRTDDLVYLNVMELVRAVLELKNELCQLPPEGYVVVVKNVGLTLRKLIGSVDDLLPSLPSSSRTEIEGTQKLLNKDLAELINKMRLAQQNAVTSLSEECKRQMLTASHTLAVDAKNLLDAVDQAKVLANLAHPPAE
# [13] = molecular target: Prothrombin (Bos taurus, UniProt P00735); test: thrombin protease inhibitors – biochemical, fluorescence polarization, uHTS hits, dose response (AID 602369); format: functional
# [14] = molecular target: Mucolipin-3 (Homo sapiens, UniProt Q8TDD5); test: Dose response cell-based high-throughput screening assay for agonists of the transient receptor potential channel ML3 (TRPML3). [Related pubchem assays: 1526, 1424, 1448 ]; format: functional
# Chain of Mucolipin-3 (Q8TDD5 whole entry): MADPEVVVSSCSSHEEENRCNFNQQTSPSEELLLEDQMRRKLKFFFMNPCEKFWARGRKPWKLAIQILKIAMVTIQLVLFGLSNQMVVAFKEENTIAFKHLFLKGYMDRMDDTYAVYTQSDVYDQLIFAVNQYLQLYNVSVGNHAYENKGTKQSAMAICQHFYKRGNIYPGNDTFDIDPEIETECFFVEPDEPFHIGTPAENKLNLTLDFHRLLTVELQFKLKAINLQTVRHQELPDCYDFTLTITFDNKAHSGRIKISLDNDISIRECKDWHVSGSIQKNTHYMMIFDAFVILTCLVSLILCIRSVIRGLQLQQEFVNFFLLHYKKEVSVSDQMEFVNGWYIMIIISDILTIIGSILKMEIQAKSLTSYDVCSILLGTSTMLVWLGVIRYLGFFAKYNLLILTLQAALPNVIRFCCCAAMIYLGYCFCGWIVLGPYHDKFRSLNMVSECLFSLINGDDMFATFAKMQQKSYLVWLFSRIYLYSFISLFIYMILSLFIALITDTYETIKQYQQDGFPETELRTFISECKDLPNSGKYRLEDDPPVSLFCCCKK
# [15] = molecular target: Ion channel NompC (Danio rerio, UniProt Q7T1G6); test: Fluorescence counterscreen assay for TRPML3 agonists: dose response cell-based high-throughput screening assay to identify agonists of the transient receptor potential channel N1 (TRPN1). [Related pubchem assays: 1526, 1424, 1448 ]; format: functional
# Chain of Ion channel NompC (Q7T1G6 whole entry): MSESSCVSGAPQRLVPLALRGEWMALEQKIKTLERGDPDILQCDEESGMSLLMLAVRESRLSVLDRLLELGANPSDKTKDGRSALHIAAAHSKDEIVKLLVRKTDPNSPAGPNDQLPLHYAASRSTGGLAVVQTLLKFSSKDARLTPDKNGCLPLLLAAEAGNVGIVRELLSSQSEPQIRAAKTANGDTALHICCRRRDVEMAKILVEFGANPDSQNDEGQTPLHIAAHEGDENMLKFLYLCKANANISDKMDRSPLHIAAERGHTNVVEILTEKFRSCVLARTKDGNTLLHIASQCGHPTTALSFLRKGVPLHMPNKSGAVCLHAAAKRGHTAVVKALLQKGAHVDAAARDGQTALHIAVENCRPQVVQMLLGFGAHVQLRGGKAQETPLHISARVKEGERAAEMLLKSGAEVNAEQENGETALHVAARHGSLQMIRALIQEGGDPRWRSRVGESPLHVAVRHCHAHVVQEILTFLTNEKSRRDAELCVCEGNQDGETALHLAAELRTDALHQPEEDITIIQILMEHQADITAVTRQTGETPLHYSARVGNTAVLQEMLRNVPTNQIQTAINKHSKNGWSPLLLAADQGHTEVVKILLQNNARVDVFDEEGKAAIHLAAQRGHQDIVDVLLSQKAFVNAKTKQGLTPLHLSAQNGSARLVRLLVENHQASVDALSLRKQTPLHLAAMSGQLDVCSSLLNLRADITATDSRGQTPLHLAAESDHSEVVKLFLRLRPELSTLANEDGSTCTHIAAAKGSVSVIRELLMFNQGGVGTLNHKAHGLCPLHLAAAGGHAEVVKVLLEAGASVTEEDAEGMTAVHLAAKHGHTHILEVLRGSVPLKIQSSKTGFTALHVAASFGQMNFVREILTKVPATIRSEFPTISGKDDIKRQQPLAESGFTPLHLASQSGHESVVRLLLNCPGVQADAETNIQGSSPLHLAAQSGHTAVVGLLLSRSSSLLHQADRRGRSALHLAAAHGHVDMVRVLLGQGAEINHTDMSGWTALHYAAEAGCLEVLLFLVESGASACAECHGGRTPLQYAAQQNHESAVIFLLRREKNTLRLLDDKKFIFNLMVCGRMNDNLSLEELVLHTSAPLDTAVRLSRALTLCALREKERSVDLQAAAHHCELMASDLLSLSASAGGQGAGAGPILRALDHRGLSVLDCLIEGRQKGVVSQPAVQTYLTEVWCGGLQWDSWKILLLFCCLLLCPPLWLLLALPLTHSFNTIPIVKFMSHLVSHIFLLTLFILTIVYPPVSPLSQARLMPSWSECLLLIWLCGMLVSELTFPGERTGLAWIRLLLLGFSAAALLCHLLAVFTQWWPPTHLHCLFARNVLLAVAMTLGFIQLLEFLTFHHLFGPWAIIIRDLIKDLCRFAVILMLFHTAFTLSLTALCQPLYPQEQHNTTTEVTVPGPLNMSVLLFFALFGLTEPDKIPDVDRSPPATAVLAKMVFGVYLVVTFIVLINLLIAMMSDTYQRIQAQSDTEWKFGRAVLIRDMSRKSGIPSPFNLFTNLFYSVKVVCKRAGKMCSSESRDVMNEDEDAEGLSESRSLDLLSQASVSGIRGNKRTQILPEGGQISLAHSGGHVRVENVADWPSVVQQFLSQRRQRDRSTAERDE
# [16] = viability loss in THP-1 monocytes – THP-1 cells, cytotoxicity control for Vif-APOBEC3G degradation inhibitor project, dose response (AID 1117359); format: functional; details: THP-1
# [17] = Trypanosoma cruzi growth suppression in host cells – NIH3T3 host cells, beta-gal luminescence, confirmation (AID 2044); format: functional, cell-based;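 note: intracellular parasites grown in NIH/3T3 mouse fibroblasts as host cells; luminescent beta-galactosidase reporter signal from transgenic T. cruzi replicating inside host cells; inhibitors lower the luminescence signal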
# [18] = molecular target: T4, Neuropeptide Y receptor type 1 (Homo sapiens, UniProt P25929); test: Fluorescence-based counterscreen for agonists of NPY-Y2: cell-based high-throughput dose response assay for agonists of NPY-Y1.; format: functional
# T4 sequence (P25929 whole entry): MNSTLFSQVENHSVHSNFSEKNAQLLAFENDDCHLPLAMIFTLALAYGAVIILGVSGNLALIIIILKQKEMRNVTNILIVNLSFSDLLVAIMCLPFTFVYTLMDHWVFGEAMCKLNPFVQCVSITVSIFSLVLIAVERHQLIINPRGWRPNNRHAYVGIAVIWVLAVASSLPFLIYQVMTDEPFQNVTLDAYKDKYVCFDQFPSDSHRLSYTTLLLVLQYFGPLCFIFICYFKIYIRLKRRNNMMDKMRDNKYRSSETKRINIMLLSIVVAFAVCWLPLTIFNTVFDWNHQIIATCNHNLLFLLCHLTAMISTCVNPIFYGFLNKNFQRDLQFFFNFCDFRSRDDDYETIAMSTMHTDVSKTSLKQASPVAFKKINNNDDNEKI
# [19] = molecular target: T5, Neuropeptide Y receptor type 2 (Homo sapiens, UniProt P49146); test: Fluorescence-based cell-based high-throughput dose response assay for agonists of NPY-Y2. [Related pubchem assays: 1703 (Screening assay (CNGC inhibitors).), 1359 (Screening assay (NPY-Y2 potentiators or agonists).), 1304 (Screening assay (NPY-Y1 potentiators or agonists).), 1710 (Screening assay (NPY-Y2 agonists).), 1791 (Summary AID.)]; format: functional
# T5 sequence (P49146 whole entry): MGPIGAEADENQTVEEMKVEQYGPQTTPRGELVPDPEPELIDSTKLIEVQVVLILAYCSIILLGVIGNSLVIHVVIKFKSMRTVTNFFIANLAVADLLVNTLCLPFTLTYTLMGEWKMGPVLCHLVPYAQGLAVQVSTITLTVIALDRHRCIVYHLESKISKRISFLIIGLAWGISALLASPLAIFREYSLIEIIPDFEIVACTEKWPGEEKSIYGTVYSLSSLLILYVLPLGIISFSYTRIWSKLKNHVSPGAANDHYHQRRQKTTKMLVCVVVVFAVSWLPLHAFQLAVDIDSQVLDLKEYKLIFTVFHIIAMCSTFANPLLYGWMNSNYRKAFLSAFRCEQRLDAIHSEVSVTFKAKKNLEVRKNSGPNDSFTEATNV
# [20] = HIV-1 Vif–A3G interaction blockers – biochemical, TR-FRET, GST-Vif 1-94, biotin-A3G peptide, dose response retest, primary screen (AID 1117319); format: functional;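 note: TR-FRET signal of purified GST-Vif binding a biotinylated A3G peptide; inhibitors lower the FRET signal by blocking Vif and A3G binding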
# [21] = NIH3T3 cell viability loss – ATP luminescence, mouse fibroblasts, counter-screen, dose response (AID 2010); format: functional, cell-based;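 note: cells exposed to compound for about 90 hours before reading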
# [22] = test system: HEK293; test: Fluorescence-based counterscreen for potentiators or agonists of NPY-Y2: cell-based high-throughput dose response assay to identify inhibitors of cyclic nucleotide gated ion channel (CNGC) activity. In this assay, the parental HEK293 cell line transfected with a cyclic-nucleotide gated ion channel (CNGC)-based cAMP sensor is used to measure inhibition of isoproterenol-induced CNGC activity by test compound.; format: functional; details: Homo sapiens;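 note: stimulus is 1 µM isoproterenol at EC100 plus PDE inhibitor Ro 20-1724 at 25 µM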
# [23] = molecular target: Inward rectifier potassium channel 2 (Mus musculus, UniProt P35561); test: Manual electrophysiological patch clamp assay for SAR compounds that inhibit/block inward-rectifying potassium ion channel Kir2.1. [Related pubchem assays: 1843 (Summary assay for Kir2.1 inhibitor assays.), 1672 (Primary HTS of 305616 compounds where 2592 were identified as active.)]; format: functional
# [24] = molecular target: Bcl-2-like protein 10 (Homo sapiens, UniProt Q9HD36); test: Concentration-response of Bcl-B inhibitors by biochemical FP with TR3 (AID 1243); format: functional
# Chain of Bcl-2-like protein 10 (Q9HD36 whole entry): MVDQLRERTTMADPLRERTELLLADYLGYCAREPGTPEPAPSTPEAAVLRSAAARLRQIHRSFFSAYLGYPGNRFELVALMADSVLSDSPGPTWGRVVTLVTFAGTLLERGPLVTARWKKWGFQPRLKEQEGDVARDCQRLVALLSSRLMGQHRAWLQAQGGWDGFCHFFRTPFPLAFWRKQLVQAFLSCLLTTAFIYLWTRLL
smiles,measurement,setting,value
CCNC(=O)NC(=O)C(C)Sc1nc2cc(C(=O)OC)ccc2c(=O)n1-c1ccccc1 (centres undefined),IC50,[1],28.9 µM (active)
COC(=O)c1ccc(COc2ccc(/C=C(\C#N)c3nc4ccccc4[nH]3)cc2OC)o1,IC50,[2],> 100 µM (inactive)
same,EC50,[3],> 180 µM (inactive)
same,EC50,[4],3.83 µM (active)
same,EC50,[5],79.7 µM (active)
same,EC50,[6],> 300 µM (not active)
same,EC50,[7],88.4 µM (active)
same,EC50,[8],> 160 µM (inactive)
same,IC50,[9],4.93 µM (active)
same,EC50,[10],> 300 µM (not active)
same,EC50,[11],> 160 µM (inconclusive)
same,IC50,[12],> 69.5 µM (not active)
same,IC50,[13],11.4 µM (active)
CCC(C(=O)Nc1cc(C)nn1-c1nc(C)cc(C)n1)c1ccccc1 (centres undefined),EC50,[14],> 29.9 µM (not active)
same,EC50,[15],> 29.9 µM (not active)
COc1ccc(NC(=O)c2c(OC)cccc2OC)c(OC)c1,CC50,[16],> 40 µM (active)
same,EC50,[17],3.06 µM (active)
same,EC50,[18],> 35.4 µM (not active)
same,EC50,[19],> 35.4 µM (not active)
same,IC50,[20],> 60.5 µM (active)
same,EC50,[21],> 60 µM (not active)
same,EC50,[22],> 35.4 µM (not active)
COc1ccc(CNCc2ccc(C(C)(C)C)cc2)cc1,IC50,[23],1.27 µM (active)
Cc1ccc(C)n1-c1cc(C(=O)O)cc(C(=O)O)c1,EC50,[24],0.54 µM (active)
